According to ChEMBL document CHEMBL5512605, “Targeted regulated cell death with small molecule compounds in colorectal cancer: Current perspectives of targeted therapy and molecular mechanisms” (Eur J Med Chem, 2024):
Blank lines part the entries; values can stand above or below the compound they belong to.

Tests used:
SW480 [1] = assay: Antiproliferative activity against human SW480 cells assessed as inhibition of cell growth by CellTiter 96 Aqueous One Solution Cell Proliferation Assay; format: functional, cell-based
SW-620 [2] = assay: Antiproliferative activity against human SW620 cells assessed as inhibition of cell growth by CellTiter 96 Aqueous One Solution Cell Proliferation Assay; format: functional, cell-based
LoVo [3] = assay: Antiproliferative activity against human LoVo cells assessed as inhibition of cell growth by CellTiter 96 Aqueous One Solution Cell Proliferation Assay; format: functional, cell-based
HCT-116 [4] = assay: Antiproliferative activity in human HCT-116 cells measured after 12 to 24 hrs by MTT assay; format: functional, cell-based
SW-620 [5] = assay: Antiproliferative activity in human SW620 cells measured after 12 to 24 hrs by MTT assay; format: functional, cell-based
HT-29 [6] = assay: Cytotoxicity against human HT-29 cells incubated for 24 hrs by MTT assay; format: functional, cell-based; conditions: HT-29, 24 h
HCT-116 [7] = assay: Cytotoxicity against human HCT-116 cells incubated for 24 hrs by MTT assay; format: functional, cell-based; conditions: HCT-116, 24 h
HCT-116 [8] = assay: Antiproliferative activity against human HCT-116 cells assessed as inhibition of cell growth incubated for 24 hrs by cell-titer glo assay; format: functional
MC-38 = assay: Antiproliferative activity against mouse MC38 cells assessed as inhibition of cell growth incubated for 24 hrs by cell-titer glo assay; format: functional
HT-29 [9] = assay: Antiproliferative activity against human HT-29 cells assessed as inhibition of cell growth incubated for 24 hrs by cell-titer glo assay; format: functional
HT-29 [10] = assay: Antiproliferative activity against human HT-29 cells; format: functional
HCT-116 [11] = assay: Cytotoxicity against human HCT-116 cells; format: functional, cell-based
SW-620 [12] = assay: Cytotoxicity against human SW620 cells; format: functional, cell-based
RKO [13] = assay: Cytotoxicity against human RKO cells assessed as reduction in cell viability by MTT assay; format: functional
HCT-116 [14] = assay: Cytotoxicity against human HCT-116 cells assessed as reduction in cell viability by MTT assay; format: functional
SW480 [15] = assay: Cytotoxicity against human SW480 cells assessed as reduction in cell viability by MTT assay; format: functional
HT-29 [16] = assay: Cytotoxicity against human HT-29 cells assessed as reduction in cell viability by MTT assay; format: functional
[17] = molecular target: T1, Signal transducer and activator of transcription 3 (Homo sapiens, UniProt P40763); assay: Binding affinity to GFP tagged STAT3 (unknown origin) assessed as dissociation constant by microscale thermophoresis analysis
SW48 = assay: Cytotoxicity against human SW48 cells measured after 72 hrs; format: functional, cell-based; conditions: SW48, 72 h
HCT-116 [18] = assay: Cytotoxicity against p53 null human HCT-116 cells measured after 72 hrs; format: functional, cell-based; conditions: HCT-116, 72 h
HT-29 [19] = assay: Cytotoxicity against human HT-29 cells measured after 72 hrs; format: functional, cell-based; conditions: HT-29, 72 h
RKO [20] = assay: Cytotoxicity against human RKO cells measured after 72 hrs; format: functional, cell-based
HCT-116 [21] = assay: Cytotoxicity against human HCT-116 cells measured after 72 hrs; format: functional, cell-based; conditions: HCT-116, 72 h
SW-620 [22] = assay: Antiproliferative activity against human SW620 cells by CCK-8 method; format: functional
HCT-116 [23] = assay: Antiproliferative activity against human HCT-116 cells by CCK-8 method; format: functional
RKO [24] = assay: Antiproliferative activity against human RKO cells by CCK-8 method; format: functional
HCT-15 = assay: Antiproliferative activity against human HCT-15 cells by CCK-8 method; format: functional
[25] = Inhibition of NEMO/IKKbeta (unknown origin); design: species or system Homo sapiens
LoVo [26] = assay: Antiproliferative activity against human LoVo cells by CCK-8 method; format: functional
HCT-116 [27] = assay: Antiproliferative activity against human HCT-116 cells assessed as reduction in cell viability measured after 24 hrs by CCK-8 method; format: functional, cell-based; conditions: HCT-116, 24 h
SW-620 [28] = assay: Antiproliferative activity against human SW620 cells assessed as reduction in cell viability measured after 24 hrs by CCK-8 method; format: functional, cell-based; conditions: SW-620, 24 h
RKO [29] = assay: Antiproliferative activity against human RKO cells assessed as inhibition of cell growth; format: functional, cell-based
[30] = molecular target: T1, Signal transducer and activator of transcription 3; assay: Inhibition of STAT3 (unknown origin)
HCT-116 [31] = assay: Cytotoxicity against human HCT-116 cells measured after 72 hrs by WST-1 assay; format: functional, cell-based; conditions: HCT-116, 72 h
HCT-116 [32] = assay: Antiproliferative activity against human HCT-116 cells incubated for 72 hrs by CCK-8 method; format: functional
P2X purinoceptor 7 = P2X purinoceptor 7 (Homo sapiens, UniProt Q99572); assay: Antagonist activity at P2X7R (unknown origin)
SW-620 [33] = assay: Antiproliferative activity against human SW620 cells incubated for 72 hrs by CCK-8 method; format: functional
SW480 [34] = assay: Cytotoxicity against human SW480 cells assessed as inhibition of cell viability by MTT assay; format: functional
HT-29 [35] = assay: Cytotoxicity against human HT-29 cells assessed as inhibition of cell viability by MTT assay; format: functional
DLD-1 [36] = assay: Antiproliferative activity against human DLD-1 cells assessed as inhibition of cell viability by CellTiter-Glo Luminescent Assay; format: functional
HCT-116 [37] = assay: Antiproliferative activity against human HCT-116 cells assessed as inhibition of cell viability by CellTiter-Glo Luminescent Assay; format: functional
HT-29 [38] = assay: Antiproliferative activity against human HT-29 cells assessed as inhibition of cell viability by CellTiter-Glo Luminescent Assay; format: functional
SW-620 [39] = assay: Antiproliferative activity against human SW-620 cells assessed as inhibition of cell viability by CellTiter-Glo Luminescent Assay; format: functional
LoVo [40] = assay: Antiproliferative activity against human LoVo cells assessed as inhibition of cell viability by CellTiter-Glo Luminescent Assay; format: functional
Phospholipase D1 = Phospholipase D1 (Homo sapiens, UniProt Q13393); assay: Inhibition of PLD1 (unknown origin)
DLD-1 [41] = assay: Cytotoxicity against human DLD-1 cells; format: functional
Phospholipase D2 = Phospholipase D2 (Homo sapiens, UniProt O14939); assay: Inhibition of PLD2 (unknown origin)
SW-620 [42] = assay: Antiproliferative activity against human SW620 cells assessed as reduction in cell viability; format: functional
SW480 [43] = assay: Antiproliferative activity against human SW480 cells assessed as reduction in cell viability; format: functional
RKO [44] = assay: Antiproliferative activity against human RKO cells assessed as inhibition of cell viability measured upto 96 hrs by CCK-8 method; format: functional
[45] = molecular target: T1, Signal transducer and activator of transcription 3; assay: Binding affinity to N-terminal his tagged recombinant human STAT3 expressed in insect cells assessed as dissociation constant by biolayer interferometry assay; design: species or system Insect cell
RKO [46] = assay: Cytotoxicity against human RKO cells assessed as inhibition of cell proliferation measured after 24 hrs by MTT assay; format: functional, cell-based
HCT-116 [47] = assay: Cytotoxicity against human HCT-116 cells assessed as inhibition of cell proliferation measured after 24 hrs by MTT assay; format: functional, cell-based; conditions: HCT-116, 24 h
HT-29 [48] = assay: Antiproliferative activity against human HT-29 cells incubated for 48 hrs by CCK-8 method; format: functional, cell-based; conditions: HT-29, 48 h
SW-620 [49] = assay: Antiproliferative activity against human SW620 cells incubated for 48 hrs by CCK-8 method; format: functional, cell-based; conditions: SW-620, 48 h

T1 sequence (P40763 whole entry): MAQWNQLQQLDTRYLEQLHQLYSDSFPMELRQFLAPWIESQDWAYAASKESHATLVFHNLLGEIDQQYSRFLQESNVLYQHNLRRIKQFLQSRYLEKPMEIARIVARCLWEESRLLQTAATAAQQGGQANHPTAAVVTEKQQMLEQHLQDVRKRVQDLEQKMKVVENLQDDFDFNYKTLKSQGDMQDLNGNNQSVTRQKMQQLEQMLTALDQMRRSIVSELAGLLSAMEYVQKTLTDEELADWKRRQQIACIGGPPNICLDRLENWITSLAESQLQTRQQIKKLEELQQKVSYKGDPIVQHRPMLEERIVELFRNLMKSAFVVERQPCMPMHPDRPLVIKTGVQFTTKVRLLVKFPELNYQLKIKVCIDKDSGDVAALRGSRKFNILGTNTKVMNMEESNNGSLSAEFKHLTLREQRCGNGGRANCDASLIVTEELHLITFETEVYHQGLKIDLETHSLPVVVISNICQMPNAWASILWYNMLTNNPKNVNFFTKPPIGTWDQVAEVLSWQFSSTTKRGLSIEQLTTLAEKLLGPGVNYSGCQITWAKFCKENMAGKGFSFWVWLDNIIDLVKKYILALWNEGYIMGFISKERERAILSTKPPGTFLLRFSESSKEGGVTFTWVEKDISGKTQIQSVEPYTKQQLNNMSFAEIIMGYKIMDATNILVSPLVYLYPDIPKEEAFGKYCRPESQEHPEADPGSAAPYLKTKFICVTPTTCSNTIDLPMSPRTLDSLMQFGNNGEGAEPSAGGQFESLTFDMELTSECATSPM
Sequence of P2X purinoceptor 7 (Q99572 whole entry): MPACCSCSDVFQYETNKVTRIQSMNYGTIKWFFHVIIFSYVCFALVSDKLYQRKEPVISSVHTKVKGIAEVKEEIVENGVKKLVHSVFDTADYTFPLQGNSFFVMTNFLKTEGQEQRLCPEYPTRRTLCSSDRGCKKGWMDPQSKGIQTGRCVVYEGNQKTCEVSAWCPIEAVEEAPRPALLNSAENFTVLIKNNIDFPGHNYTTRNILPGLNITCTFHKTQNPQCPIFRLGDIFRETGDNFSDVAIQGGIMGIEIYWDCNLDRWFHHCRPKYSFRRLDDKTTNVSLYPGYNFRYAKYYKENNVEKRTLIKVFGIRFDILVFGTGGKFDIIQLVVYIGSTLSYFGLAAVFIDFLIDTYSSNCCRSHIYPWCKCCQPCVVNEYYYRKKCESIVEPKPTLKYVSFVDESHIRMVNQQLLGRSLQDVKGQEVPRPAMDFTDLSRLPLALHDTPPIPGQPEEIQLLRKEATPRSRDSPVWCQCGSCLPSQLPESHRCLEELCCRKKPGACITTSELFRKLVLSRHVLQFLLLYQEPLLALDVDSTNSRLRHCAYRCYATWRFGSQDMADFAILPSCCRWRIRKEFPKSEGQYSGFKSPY
Sequence of Phospholipase D1 (Q13393 whole entry): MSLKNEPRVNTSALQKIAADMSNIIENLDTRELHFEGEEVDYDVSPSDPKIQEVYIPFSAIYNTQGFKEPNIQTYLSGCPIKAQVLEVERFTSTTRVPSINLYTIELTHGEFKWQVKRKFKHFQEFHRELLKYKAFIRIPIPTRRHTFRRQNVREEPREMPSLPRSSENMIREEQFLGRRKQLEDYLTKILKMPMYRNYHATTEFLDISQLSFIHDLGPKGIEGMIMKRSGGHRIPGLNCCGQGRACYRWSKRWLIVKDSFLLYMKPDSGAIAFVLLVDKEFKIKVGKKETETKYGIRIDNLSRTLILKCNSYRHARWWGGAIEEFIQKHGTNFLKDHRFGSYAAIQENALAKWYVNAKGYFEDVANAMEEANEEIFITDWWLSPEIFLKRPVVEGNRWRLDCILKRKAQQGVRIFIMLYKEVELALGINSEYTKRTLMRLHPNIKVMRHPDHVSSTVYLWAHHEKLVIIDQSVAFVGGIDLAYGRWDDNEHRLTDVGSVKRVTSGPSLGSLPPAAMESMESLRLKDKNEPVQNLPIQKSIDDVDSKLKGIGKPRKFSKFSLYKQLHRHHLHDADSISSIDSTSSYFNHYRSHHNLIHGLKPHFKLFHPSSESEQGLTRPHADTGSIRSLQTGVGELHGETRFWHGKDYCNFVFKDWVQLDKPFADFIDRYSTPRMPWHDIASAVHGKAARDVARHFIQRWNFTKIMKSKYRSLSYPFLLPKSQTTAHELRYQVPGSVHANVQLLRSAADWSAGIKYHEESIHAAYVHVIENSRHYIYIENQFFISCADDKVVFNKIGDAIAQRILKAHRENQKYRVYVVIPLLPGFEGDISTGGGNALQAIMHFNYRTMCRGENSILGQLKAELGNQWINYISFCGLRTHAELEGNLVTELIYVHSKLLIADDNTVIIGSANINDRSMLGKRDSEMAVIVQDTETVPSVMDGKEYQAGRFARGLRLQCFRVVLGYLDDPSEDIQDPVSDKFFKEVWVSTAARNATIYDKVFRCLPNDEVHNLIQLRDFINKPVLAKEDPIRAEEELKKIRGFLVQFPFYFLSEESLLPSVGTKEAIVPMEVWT
Sequence of Phospholipase D2 (O14939 whole entry): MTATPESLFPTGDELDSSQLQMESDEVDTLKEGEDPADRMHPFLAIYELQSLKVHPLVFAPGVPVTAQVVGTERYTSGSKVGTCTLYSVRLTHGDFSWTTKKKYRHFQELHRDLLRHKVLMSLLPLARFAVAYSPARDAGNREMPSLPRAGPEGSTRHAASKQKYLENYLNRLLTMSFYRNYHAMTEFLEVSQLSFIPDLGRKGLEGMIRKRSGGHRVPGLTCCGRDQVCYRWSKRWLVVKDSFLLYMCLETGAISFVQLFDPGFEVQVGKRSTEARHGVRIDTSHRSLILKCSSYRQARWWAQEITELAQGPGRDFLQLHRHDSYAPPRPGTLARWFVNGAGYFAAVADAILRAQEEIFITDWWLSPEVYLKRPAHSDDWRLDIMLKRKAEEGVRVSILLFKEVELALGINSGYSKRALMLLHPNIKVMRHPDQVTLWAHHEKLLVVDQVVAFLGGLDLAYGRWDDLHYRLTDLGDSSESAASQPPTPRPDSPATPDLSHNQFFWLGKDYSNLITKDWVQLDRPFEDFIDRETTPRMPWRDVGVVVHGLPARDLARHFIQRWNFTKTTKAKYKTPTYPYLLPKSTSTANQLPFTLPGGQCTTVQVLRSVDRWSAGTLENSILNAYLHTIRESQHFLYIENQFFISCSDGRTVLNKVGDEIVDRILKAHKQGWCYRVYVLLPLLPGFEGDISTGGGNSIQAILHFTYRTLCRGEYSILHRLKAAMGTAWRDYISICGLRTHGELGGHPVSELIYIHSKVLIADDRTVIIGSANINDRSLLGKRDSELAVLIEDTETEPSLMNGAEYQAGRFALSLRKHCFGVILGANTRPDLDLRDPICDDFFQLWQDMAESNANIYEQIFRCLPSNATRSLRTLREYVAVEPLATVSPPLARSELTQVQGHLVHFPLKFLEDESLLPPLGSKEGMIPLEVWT

IC50 (SW480 [1]): 6.97 µM | IC50 (SW-620 [2]): 7.33 µM | IC50 (LoVo [3]): 7.05 µM
SMILES: CC(C)=CCc1cc(-c2coc3cc(O)c(CC=C(C)C)c(O)c3c2=O)cc(O)c1O

IC50 (HCT-116 [4]): 316 µM | IC50 (SW-620 [5]): 355 µM
SMILES: C=C[C@@]12COC(=O)C(=C)[C@@H]1[C@H]1OC(=O)C(=C)[C@@H]1[C@@H](OC(=O)C(=C)CO)C2 [VERNODALIN]
IC50 (HT-29 [6]): 7.17 µM | IC50 (HCT-116 [7]): 3.17 µM

SMILES: O=C(NC1CCN(CCCCC2(C(=O)NCC(F)(F)F)c3ccccc3-c3ccccc32)CC1)c1ccccc1-c1ccc(C(F)(F)F)cc1 [LOMITAPIDE]
IC (HCT-116 [8]): 10 µM | IC (MC-38): 10 µM | IC (HT-29 [9]): 10 µM

SMILES: CC(C)[C@@H]1C[C@@H](O)[C@H]2[C@@]1(C)CC[C@@]1(C)[C@H]3C(=CC[C@]21C)[C@@]1(C)CC[C@H](O)C(C)(C)[C@@H]1C[C@@H]3O [RUBIARBONOL B]
IC (HT-29 [10]): 10 µM | IC (HCT-116 [11]): 10 µM | IC (SW-620 [12]): 10 µM

Kd [17]: 3.3 µM
SMILES: O=C1C(Nc2ccccc2N2CCNCC2)=CC2=NS(=O)(=O)c3cccc1c32
IC (RKO [13]): 3 µM | IC (HCT-116 [14]): 3 µM | IC (SW480 [15]): 3 µM | IC (HT-29 [16]): 3 µM

SMILES: O=C(O)CCCCC1CCSS1 (stereo not drawn) [LIPOIC ACID, ALPHA]
IC50 (SW48): 266 µM | IC50 (HCT-116 [18]): 890 µM | IC50 (HT-29 [19]): 266 µM | IC50 (RKO [20]): 266 µM | IC50 (HCT-116 [21]): 266 µM

IC50 [25]: 0.17 µM
SMILES: CC(C)=CC[C@@H](O)C1=CC(=O)c2c(O)ccc(O)c2C1=O [SHIKONIN]
IC (SW-620 [22]): 0.5 µM | IC (HCT-116 [23]): 0.5 µM | IC (RKO [24]): 0.5 µM | IC (HCT-15): 0.5 µM | IC (LoVo [26]): 0.5 µM

IC50 (HCT-116 [27]): 9.23 µM | IC50 (SW-620 [28]): 5.82 µM
SMILES: CCC(C)/C=C(\C)[C@H]1C(C)=C[C@@]2(C)C[C@@H](C)CC[C@@H]2[C@H]1C(=O)C1=C/C(=C/c2ccc(O)cc2)NC1=O (stereo not given in full) [TALAROCONVOLUTIN A]

SMILES: COc1cc(-c2[o+]c3cc(O)cc(O[C@@H]4O[C@H](CO)[C@@H](O)[C@H](O)[C@H]4O)c3cc2O[C@@H]2O[C@H](CO[C@@H]3O[C@@H](C)[C@H](OC(=O)/C=C/c4ccc(O)cc4)C[C@H]3O)[C@@H](O)[C@H](O)[C@H]2O)cc(O)c1O
IC50 (RKO [29]): 172 µM

SMILES: COC(=O)[C@@]12OC[C@]34[C@H]([C@@H](O)[C@@H]1O)[C@@]1(C)CC(=O)C(O)=C(C)[C@@H]1C[C@H]3OC(=O)[C@H](OC(=O)/C=C(\C)C(C)(C)OC(C)=O)[C@@H]24
IC50 [30]: 2.4 pM | IC50 (HCT-116 [31]): 18.7 µM

IC50 (P2X purinoceptor 7): 0.13 µM
SMILES: Clc1cccc(-c2nnnn2Cc2cccnc2)c1Cl
IC (HCT-116 [32]): 10 µM | IC (SW-620 [33]): 10 µM

SMILES: CC[C@@]1(O)C(=O)OCc2c1cc1n(c2=O)Cc2cc3cc4c(cc3nc2-1)OCO4
IC (SW480 [34]): 0 nM | IC (HT-29 [35]): 0 nM

SMILES: C[C@@H]1CN(CC(=O)N2CC(C)(C)c3nc(CO)c(Cc4ccc(F)cc4)cc32)[C@@H](CN2CCOC[C@H]2C)CN1 [ASTX-660]
IC (DLD-1 [36]): 0.5 nM | IC (HCT-116 [37]): 0.5 nM | IC (HT-29 [38]): 0.5 nM | IC (SW-620 [39]): 0.5 nM | IC (LoVo [40]): 0.5 nM

SMILES: CC(=O)c1ccc2[nH]c(C(=O)Nc3cc(C(F)(F)F)cc(C(F)(F)F)c3)cc2c1
IC50 (Phospholipase D1): 0.325 µM | IC (DLD-1 [41]): 1 µM | IC50 (Phospholipase D2): 0.0151 µM

SMILES: C[C@H]1O[C@@H](O[C@H]2[C@@H](O)C[C@H](O[C@H]3[C@@H](O)C[C@H](O[C@H]4CC[C@@]5(C)[C@H](CC[C@@H]6[C@@H]5CC[C@]5(C)[C@@H](C7=CC(=O)OC7)CC[C@]65O)C4)O[C@@H]3C)O[C@@H]2C)C[C@H](O)[C@@H]1O [DIGITOXIN]
IC (SW-620 [42]): 200 nM | IC (SW480 [43]): 200 nM

SMILES: CCN(CC)C(=S)SSC(=S)N(CC)CC [DISULFIRAM]
IC (RKO [44]): 0.1 µM

Kd [45]: 6.6 µM
SMILES: Cc1ccc(COc2ccc3c(c2)C(=O)C(=O)C2=C3OC(C)C2)cc1 (stereo not given)
IC50 (RKO [46]): 3.78 µM | IC50 (HCT-116 [47]): 4.07 µM

IC50 (HT-29 [48]): 13.8 µM | IC50 (SW-620 [49]): 7.6 µM
SMILES: CC(C)c1onc(-c2c(Cl)cccc2Cl)c1COc1ccc(/C=C/c2cccc(C(=O)O)c2)c(Cl)c1
